Values of other authors as cited in US9426985B2, “Compositions and methods to modulate the rate of EBIS production from dithiocarbamate fungicides” (Dow Agrosciences LLC, priority 2012, dated 2016).

Key:
[1] = tomato leaves

Compound: S=C1SSC2=NCCN12 [EBIS, ethylene bisisthiocyanate sulfide]
- half-life on the leaf surface: less than 2 days

Compound: mancozeb
- time to peak EBIS levels after application [1]: about two
